Results reported in patent US9108936B2, “Substituted 4-aminobenzamides as KCNQ2/3 modulators” (GRUENENTHAL GMBH, priority 2012, dated 2015).

Target: T1, KCNQ2/3 channels (Homo sapiens, UniProt O43525+O43526)
T1 construct: expressed in transfected cells; host or cells: CHO-K1
Test: Fluorescence assay using a voltage sensitive dye (fluorimetry)
Type: cell-based
Settings: CHO-K1 cells expressing KCNQ2/3; for Emax: plateau effect relative to saturated Retigabine (50 μM), read-out: Fluorimetry % efficacy (retigabine = 100%); for EC50: voltage-sensitive dye, KCl depolarization, read-out: Fluorimetry EC50/IC50
From the text: Method I. Fluorescence Assay Using a Voltage Sensitive Dye (Fluorimetry)
The modulation of the KCNQ opening state (and consequently the voltage potential of a cell) by test compounds such as compounds according to the present invention results in an increased or reduced amount of a voltage-sensitive dye in the cytoplasm of the cells tested. These voltage-sensitive dyes are fluorescent dyes and, therefore, are forming the link between cell potential influenced by KCNQ modulation and fluorescence intensity. A KCNQ agonist leads to an opening of the channel, potassium and dye efflux, a following hyperpolarization and a reduction of the inner fluorescence intensity in a kinetic protocol. If applying an ion jump by KCl depolarization, KCNQ agonists increase the ΔF/F value. An antagonist performs vice versa, respectively.
The ‘fluorimetry EC50’ is the half maximum effective concentration (EC50), where the concentration of a drug/compound induces a response halfway between the baseline and maximum plateau effect. In other words, said value represents the concentration of a compound, where 50% of its maximal effect in the fluorimetric assay is observed if the substance concentration is graphed against the corresponding ΔF/F values (for which the calculation method is described below). Therefore, ‘fluorimetry EC50’ is a measure for the compound potency. The compound efficacy is mirrored by ‘fluorimetry % efficacy’ (‘% Efficacy’) and refers to the maximum response achievable by the test compound, i.e. the plateau effect. This drug's plateau effect is related to the plateau effect, which can be achieved by applying a saturated concentration of a reference compound, e.g. Retigabine (50 μM), in independent wells of the same experimental plate or series. A compound showing 100% efficacy is as efficacious as the reference compound (Retigabine) with a saturated concentration.
[…] CHO-K1 cells expressing KCNQ2/3 channels are cultivated adherently at 37° C., 5% CO2 and 95% humidity in cell culture bottles (e.g. 80 cm^2 TC flasks, Nunc) with DMEM-high glucose (Sigma Aldrich, D7777) including 10% FCS (PAN Biotech, e.g. 3302-P270521) or alternatively MEM Alpha Medium (1×, liquid, Invitrogen, #22571), 10% fetal calf serum (FCS) (Invitrogen, #10270-106, heat-inactivated) and the necessary selection antibiotics.
Before being sown out for the measurements, the cells are washed with 1× DPBS buffer Ca^2+/Mg^2+-free (e.g. Invitrogen, #14190-094) and detached from the bottom of the culture vessel by using Accutase (PAA Laboratories, #L11-007) (incubation with Accutase for 15 min at 37° C.). The cell number is determined using a CASY™ cell counter (TCC, Schärfe System). Depending on the optimal density for each individual cell line, 20,000-30,000 cells/well/100 μl are seeded onto 96-well Corning™ CellBIND™ assay plates (Flat Clear Bottom Black Polystyrene Microplates, #3340). Freshly seeded cells are then left to settle for one hour at room temperature, followed by incubation for 24 hours at 37° C., 5% CO2 and 95% humidity.
The voltage-sensitive fluorescent dye from the Membrane Potential Assay Kit (Red™ Bulk format part R8123 for FLIPR, MDS Analytical Technologies™) is prepared by dissolving the contents of one vessel Membrane Potential Assay Kit Red Component A in 200 ml of extracellular buffer (ES buffer, 120 mM NaCl, 1 mM KCl, 10 mM HEPES, 2 mM CaCl2, 2 mM MgCl2, 10 mM glucose; pH 7.4). After removal of the nutrient medium, the cells are washed once with 200 μl of ES buffer, then loaded for 45 min at room temperature in 100 μl of dye solution in the dark.
Fluorescence measurements are carried out in a BMG Labtech FLUOstar™, BMG Labtech NOVOstar™ or BMG Labtech POLARstar™ instrument (525 nm excitation, 560 nm emission, Bottom Read mode). […]

Structure (SMILES)	Emax	EC50
CCc1cc(N2CCOCC2)cc(CC)c1C(=O)NCc1ccc(Cl)cc1 [Example 41, N-[(4-Chlorophenyl)-methyl]-2,6-diethyl-4-morpholin-4-yl-benzamide]	181%	506 nM
CCCc1cc(N2CCOCC2)cc(C)c1C(=O)NCc1ccc(Cl)cc1 [Example 13, N-[(4-Chlorophenyl)-methyl]-2-methyl-4-morpholin-4-yl-6-propyl-benzamide]	183%	217 nM
CCS(=O)(=O)c1cc(N2CCOCC2)cc(C)c1C(=O)NCc1ccc(Cl)cc1 [Example 8, N-[(4-Chlorophenyl)-methyl]-2-(ethylsulfonyl)-6-methyl-4-morpholin-4-yl-benzamide]	88%	5560 nM
Cc1cc(N2CCOCC2)cc(C2CC2)c1C(=O)NCC(O)CC(C)(C)C (centres unmarked) [Example 32, 2-Cyclopropyl-N-(2-hydroxy-4,4-dimethyl-pentyl)-6-methyl-4-morpholin-4-yl-benzamide]	159%	3810 nM
Cc1cc(N2CCOCC2)cc(C(F)(F)F)c1C(=O)NCc1ccc(Cl)cc1 [Example 19, N-[(4-Chlorophenyl)-methyl]-2-methyl-4-morpholin-4-yl-6-(trifluoromethyl)-benzamide]	185%	400 nM
Cc1cc(N2CCOCC2)cc(C2CC2)c1C(=O)NCC[C@H](O)C(C)(C)C [Example 29, 2-Cyclopropyl-N-[(3S)-3-hydroxy-4,4-dimethyl-pentyl]-6-methyl-4-morpholin-4-yl-benzamide]	195%	1810 nM
Cc1cc(N2CCOCC2)cc(C(C)C)c1C(=O)NCc1ccc(C(F)(F)F)cc1 [Example 22, 2-Isopropyl-6-methyl-4-morpholin-4-yl-N-[[4-(trifluoromethyl)-phenyl]-methyl]-benzamide]	148%	184 nM
Cc1cc(N2CCOCC2)cc(C(C)C)c1C(=O)NCc1ccc(C(F)(F)F)cn1 [Example 35, 2-Isopropyl-6-methyl-4-morpholin-4-yl-N-[[5-(trifluoromethyl)-pyridin-2-yl]-methyl]-benzamide]	134%	3070 nM
CCc1cc(N2CCOCC2)cc(C)c1C(=O)NCc1ccc(Cl)cc1 [Example 12, N-[(4-Chlorophenyl)-methyl]-2-ethyl-6-methyl-4-morpholin-4-yl-benzamide]	169%	369 nM
Cc1cc(N2CCOCC2)cc(C2CC2)c1C(=O)NCc1ccc(Cl)cc1 [Example 15, N-[(4-Chlorophenyl)-methyl]-2-cyclopropyl-6-methyl-4-morpholin-4-yl-benzamide]	170%	552 nM
Cc1cc(N2CCOCC2)cc(C(C)C)c1C(=O)NCC(O)CC(C)(C)C (centres unmarked) [Example 33, N-(2-Hydroxy-4,4-dimethyl-pentyl)-2-isopropyl-6-methyl-4-morpholin-4-yl-benzamide]	216%	1370 nM
CC(C)c1cc(N2CCOCC2)cc(F)c1C(=O)NCc1ccc(Cl)cc1 [Example 39, N-[(4-Chlorophenyl)-methyl]-2-fluoro-6-isopropyl-4-morpholin-4-yl-benzamide]	196%	217 nM
C=C(C)c1cc(N2CCOCC2)cc(C)c1C(=O)NCc1ccc(C(F)(F)F)cc1 [Example 21, 2-Isopropenyl-6-methyl-4-morpholin-4-yl-N-[[4-(trifluoromethyl)-phenyl]-methyl]-benzamide]	118%	626 nM
Cc1cc(N2CCOCC2)cc(N2CC[C@@H](F)C2)c1C(=O)NCc1ccc(Cl)cc1 [Example 38, N-[(4-Chlorophenyl)-methyl]-2-[(3R)-3-fluoro-pyrrolidin-1-yl]-6-methyl-4-morpholin-4-yl-benzamide]	167%	748 nM
Cc1cc(N2CCCCC2)cc(C(F)(F)F)c1C(=O)NCc1cccc(F)c1 [Example 27, N-[(3-Fluorophenyl)-methyl]-2-methyl-4-piperidin-1-yl-6-(trifluoromethyl)-benzamide]	197%	673 nM
Cc1cc(N2CCOCC2)cc(C2CCOC2)c1C(=O)NCc1ccc(Cl)cc1 (centres unmarked) [Example 37, N-[(4-Chlorophenyl)-methyl]-2-methyl-4-morpholin-4-yl-6-tetrahydro-furan-3-yl-benzamide]	166%	1690 nM
Cc1cc(N2CCOCC2)cc(C2CC2)c1C(=O)NCc1ccc(F)cc1 [Example 18, 2-Cyclopropyl-N-[(4-fluorophenyl)-methyl]-6-methyl-4-morpholin-4-yl-benzamide]	169%	982 nM
Cc1cc(N2CCOCC2)cc(C(C)C)c1C(=O)NCc1ccc(Cl)cn1 [Example 34, N-[(5-Chloro-pyridin-2-yl)-methyl]-2-isopropyl-6-methyl-4-morpholin-4-yl-benzamide]	156%	3610 nM
COc1cc(N2CCOCC2)cc(C)c1C(=O)NCc1ccc(Cl)cc1 [Example 10, N-[(4-Chlorophenyl)-methyl]-2-methoxy-6-methyl-4-morpholin-4-yl-benzamide]	147%	1640 nM
Cc1cc(N2CCOCC2)cc(C(C)C)c1C(=O)NCC[C@H](O)C(C)(C)C [Example 31, N-[(3S)-3-Hydroxy-4,4-dimethyl-pentyl]-2-isopropyl-6-methyl-4-morpholin-4-yl-benzamide]	230%	416 nM
CCSc1cc(N2CCOCC2)cc(C)c1C(=O)NCCCC(C)(C)C [Example 3, N-(4,4-Dimethyl-pentyl)-2-ethylsulfanyl-6-methyl-4-morpholin-4-yl-benzamide]	220%	335 nM
Cc1cc(N2CCOCC2)cc(C2CC2)c1C(=O)NCC[C@@H](O)C(C)(C)C [Example 28, 2-Cyclopropyl-N-[(3R)-3-hydroxy-4,4-dimethyl-pentyl]-6-methyl-4-morpholin-4-yl-benzamide]	155%	4660 nM
Cc1cc(N2CCOCC2)cc(C2CC2)c1C(=O)NCc1ccc(C(F)(F)F)cn1 [Example 36, 2-Cyclopropyl-6-methyl-4-morpholin-4-yl-N-[[5-(trifluoromethyl)-pyridin-2-yl]-methyl]-benzamide]	89%	5260 nM
Cc1cc(N2CCOCC2)cc(C(F)F)c1C(=O)NCc1ccc(Cl)cc1 [Example 20, N-[(4-Chlorophenyl)-methyl]-2-(difluoro-methyl)-6-methyl-4-morpholin-4-yl-benzamide]	144%	708 nM
Cc1cc(N2CCOCC2)cc(C2CC2)c1C(=O)NCc1ccc(C(F)(F)F)cc1 [Example 24, 2-Cyclopropyl-6-methyl-4-morpholin-4-yl-N-[[4-(trifluoromethyl)-phenyl]-methyl]-benzamide]	134%	693 nM
CC[S+]([O-])c1cc(N2CCOCC2)cc(C)c1C(=O)NCCCC(C)(C)C (centres unmarked) [Example 7, N-(4,4-Dimethyl-pentyl)-2-(ethylsulfinyl)-6-methyl-4-morpholin-4-yl-benzamide]	66%	8800 nM
CCSc1cc(N2CCOC[C@H]2C)cc(C)c1C(=O)NCc1ccc(Cl)cc1 [Example 4, N-[(4-Chlorophenyl)-methyl]-2-ethylsulfanyl-6-methyl-4-[(3R)-3-methyl-morpholin-4-yl]-benzamide]	200%	260 nM
CCS(=O)(=O)c1cc(N2CCOCC2)cc(C)c1C(=O)NCCCC(C)(C)C [Example 9, N-(4,4-Dimethyl-pentyl)-2-(ethylsulfonyl)-6-methyl-4-morpholin-4-yl-benzamide]	65%	9300 nM
